The source made the active and inactive calls.
Legend:
[1] = target: Protein kinase C gamma type (Homo sapiens, UniProt P05129); format: functional
[2] = target: Cyclin-dependent kinase 1 (Homo sapiens, UniProt P06493); format: functional;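 further: Kinome-wide panel profiling, with the target listed as panel member CDC2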
[3] = target: PAS domain-containing serine/threonine-protein kinase (Homo sapiens, UniProt Q96RG2); format: functional
[4] = target: T1, Lymphokine-activated killer T-cell-originated protein kinase (Homo sapiens, UniProt Q96KB5); format: functional;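 further: value comes from a kinase panel screen in which TOPK was one of the panel members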
T1 sequence (Q96KB5 whole entry): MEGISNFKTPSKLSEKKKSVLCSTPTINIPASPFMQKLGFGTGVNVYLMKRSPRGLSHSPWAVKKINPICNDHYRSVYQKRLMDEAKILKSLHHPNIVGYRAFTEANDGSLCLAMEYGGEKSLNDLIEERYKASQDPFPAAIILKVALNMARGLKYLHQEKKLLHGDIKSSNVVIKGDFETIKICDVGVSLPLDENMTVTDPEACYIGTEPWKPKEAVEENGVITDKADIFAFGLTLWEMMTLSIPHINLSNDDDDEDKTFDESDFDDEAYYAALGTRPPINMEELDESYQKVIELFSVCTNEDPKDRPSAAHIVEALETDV

[5] = target: Eukaryotic elongation factor 2 kinase (Homo sapiens, UniProt O00418); format: functional
[6] = target: T2, Dual specificity tyrosine-phosphorylation-regulated kinase 3 (Homo sapiens, UniProt O43781); format: functional;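 further: measured as one member of a broad kinase panel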
T2 sequence (O43781 whole entry): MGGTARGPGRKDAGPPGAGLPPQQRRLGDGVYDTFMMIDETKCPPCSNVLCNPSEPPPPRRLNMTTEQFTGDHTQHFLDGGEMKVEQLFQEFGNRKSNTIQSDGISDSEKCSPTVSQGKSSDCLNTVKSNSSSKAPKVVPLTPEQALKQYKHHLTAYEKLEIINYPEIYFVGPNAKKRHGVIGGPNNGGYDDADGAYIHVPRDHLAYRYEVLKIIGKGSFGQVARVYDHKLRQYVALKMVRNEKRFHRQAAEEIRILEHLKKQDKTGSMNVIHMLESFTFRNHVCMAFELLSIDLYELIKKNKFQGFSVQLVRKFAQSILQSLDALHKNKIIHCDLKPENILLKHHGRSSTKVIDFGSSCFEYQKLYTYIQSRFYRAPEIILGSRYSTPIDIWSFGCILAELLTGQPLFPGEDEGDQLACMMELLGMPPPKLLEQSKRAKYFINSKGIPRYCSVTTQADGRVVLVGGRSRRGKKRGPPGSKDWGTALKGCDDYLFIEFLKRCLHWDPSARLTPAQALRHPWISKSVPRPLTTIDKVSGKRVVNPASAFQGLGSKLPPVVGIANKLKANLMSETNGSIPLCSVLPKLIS

[7] = target: T3, Testis-specific serine/threonine-protein kinase 2 (Homo sapiens, UniProt Q96PF2); format: functional;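 further: part of the Navigating the Kinome panel, target entry STK22B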
T3 sequence (Q96PF2 whole entry): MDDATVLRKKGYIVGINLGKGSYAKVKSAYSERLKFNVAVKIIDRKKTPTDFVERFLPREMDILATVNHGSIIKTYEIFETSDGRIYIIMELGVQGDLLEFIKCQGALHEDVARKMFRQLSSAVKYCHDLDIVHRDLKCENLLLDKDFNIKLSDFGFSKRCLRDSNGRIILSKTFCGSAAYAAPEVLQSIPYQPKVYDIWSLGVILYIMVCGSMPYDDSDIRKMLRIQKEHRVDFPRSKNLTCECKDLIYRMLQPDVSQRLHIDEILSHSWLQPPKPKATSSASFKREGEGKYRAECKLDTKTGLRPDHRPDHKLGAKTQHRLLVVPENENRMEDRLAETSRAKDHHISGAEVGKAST

[8] = target: G protein-coupled receptor kinase 5 (Homo sapiens, UniProt P34947); assay: Navigating the Kinome. Panel member name: GPRK5; format: functional
[9] = target: MAP kinase-activated protein kinase 3 (Homo sapiens, UniProt Q16644); format: functional;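 further: value comes from a kinome-wide profiling panel in which MAPKAPK3 is one of the panel members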
[10] = target: T4, Protein kinase C zeta type (Homo sapiens, UniProt Q05513); format: functional;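 further: measured as one member of a broad kinase profiling panel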
T4 sequence (Q05513 whole entry): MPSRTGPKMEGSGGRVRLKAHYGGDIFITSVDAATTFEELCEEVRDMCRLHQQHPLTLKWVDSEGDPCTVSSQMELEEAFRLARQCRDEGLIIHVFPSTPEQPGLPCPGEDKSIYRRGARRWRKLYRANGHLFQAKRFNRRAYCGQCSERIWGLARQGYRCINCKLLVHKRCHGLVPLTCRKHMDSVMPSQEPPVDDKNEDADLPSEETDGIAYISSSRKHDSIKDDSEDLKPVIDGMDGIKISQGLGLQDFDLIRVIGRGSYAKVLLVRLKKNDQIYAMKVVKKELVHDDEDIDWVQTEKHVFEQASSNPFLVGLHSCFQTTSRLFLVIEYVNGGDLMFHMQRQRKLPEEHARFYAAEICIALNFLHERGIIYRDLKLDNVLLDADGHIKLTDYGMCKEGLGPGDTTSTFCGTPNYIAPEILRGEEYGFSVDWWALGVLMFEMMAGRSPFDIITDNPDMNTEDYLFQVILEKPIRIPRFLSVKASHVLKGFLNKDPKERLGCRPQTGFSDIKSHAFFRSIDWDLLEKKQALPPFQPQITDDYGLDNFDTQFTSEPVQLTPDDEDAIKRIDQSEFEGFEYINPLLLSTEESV

[11] = target: Cell division cycle 7-related protein kinase (Homo sapiens, UniProt O00311); format: functional;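 further: value obtained from a kinome-wide kinase panel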
Chain of Cell division cycle 7-related protein kinase (O00311 whole entry): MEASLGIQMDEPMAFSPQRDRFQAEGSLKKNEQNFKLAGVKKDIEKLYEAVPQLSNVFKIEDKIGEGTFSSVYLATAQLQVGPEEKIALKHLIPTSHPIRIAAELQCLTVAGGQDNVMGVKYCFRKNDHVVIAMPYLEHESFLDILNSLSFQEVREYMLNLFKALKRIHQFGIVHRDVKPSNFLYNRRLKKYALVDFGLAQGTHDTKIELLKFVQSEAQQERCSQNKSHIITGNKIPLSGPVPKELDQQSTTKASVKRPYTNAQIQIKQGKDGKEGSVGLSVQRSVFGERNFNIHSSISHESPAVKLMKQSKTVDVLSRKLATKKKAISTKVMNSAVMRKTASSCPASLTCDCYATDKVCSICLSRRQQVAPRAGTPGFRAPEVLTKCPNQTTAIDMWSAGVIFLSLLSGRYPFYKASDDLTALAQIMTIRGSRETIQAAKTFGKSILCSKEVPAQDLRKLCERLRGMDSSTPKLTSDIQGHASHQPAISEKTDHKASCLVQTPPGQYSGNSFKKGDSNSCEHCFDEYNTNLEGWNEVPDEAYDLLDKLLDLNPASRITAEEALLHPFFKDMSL

[12] = target: Serine/threonine-protein kinase PLK3 (Homo sapiens, UniProt Q9H4B4); format: functional
[13] = target: Serine/threonine-protein kinase PLK4 (Homo sapiens, UniProt O00444); format: functional;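 further: PLK4 measured as one member of a kinome-wide kinase profiling panel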
Chain of Serine/threonine-protein kinase PLK4 (O00444 whole entry): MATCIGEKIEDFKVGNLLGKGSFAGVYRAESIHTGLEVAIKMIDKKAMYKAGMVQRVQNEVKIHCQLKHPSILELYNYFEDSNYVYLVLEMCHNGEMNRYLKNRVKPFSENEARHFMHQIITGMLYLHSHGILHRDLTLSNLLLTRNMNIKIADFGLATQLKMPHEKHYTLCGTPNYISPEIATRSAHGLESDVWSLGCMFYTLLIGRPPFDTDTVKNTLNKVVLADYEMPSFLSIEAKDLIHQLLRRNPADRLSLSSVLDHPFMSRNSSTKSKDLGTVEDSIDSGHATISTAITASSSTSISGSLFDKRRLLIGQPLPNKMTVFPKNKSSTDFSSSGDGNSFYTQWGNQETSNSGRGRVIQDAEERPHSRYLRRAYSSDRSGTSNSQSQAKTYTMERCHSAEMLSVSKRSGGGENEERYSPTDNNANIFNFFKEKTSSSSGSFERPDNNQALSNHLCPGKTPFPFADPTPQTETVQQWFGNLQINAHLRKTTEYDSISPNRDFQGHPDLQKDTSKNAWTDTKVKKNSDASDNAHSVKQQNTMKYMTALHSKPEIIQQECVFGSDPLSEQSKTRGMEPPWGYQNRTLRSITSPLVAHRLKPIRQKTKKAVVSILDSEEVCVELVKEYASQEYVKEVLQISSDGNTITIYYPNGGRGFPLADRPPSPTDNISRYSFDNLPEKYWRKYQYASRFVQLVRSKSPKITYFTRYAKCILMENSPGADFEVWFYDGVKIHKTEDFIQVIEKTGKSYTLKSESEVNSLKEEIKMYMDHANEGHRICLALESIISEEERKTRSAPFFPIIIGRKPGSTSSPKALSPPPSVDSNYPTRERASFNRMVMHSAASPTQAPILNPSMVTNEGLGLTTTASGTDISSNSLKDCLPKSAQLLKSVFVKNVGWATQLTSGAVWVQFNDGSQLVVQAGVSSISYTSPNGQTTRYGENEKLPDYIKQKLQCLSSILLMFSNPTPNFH

[14] = target: Interleukin-1 receptor-associated kinase 1 (Homo sapiens, UniProt P51617); format: functional;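 further: IRAK1 tested as one member of a kinome panel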
INS1 [15] = assay: beta-cell survival under cytokine stress – INS-1E, ATP luminescence, dry powder, dose response (AID 488844); format: functional, cell-based; details: Rattus norvegicus
[16] = suppression of NO production in INS-1E cells – cell-based, Griess absorbance, dry powder, set 3, dose response (AID 488870); format: functional; details: Rattus norvegicus
INS1 [17] = assay: suppression of NO production in INS-1E cells – cell-based, Griess absorbance, dry powder, set 2, dose response (AID 488868); format: functional; details: Rattus norvegicus
INS1 [18] = assay: INS-1E mitochondrial potential rescue under cytokines – cell-based, JC-1 fluorescence ratio, dry powder, dose response (AID 488931); format: functional; details: Rattus norvegicus
INS1 [19] = assay: suppression of NO production in INS-1E cells – cell-based, Griess absorbance, dry powder, dose response (AID 488866); format: functional; details: Rattus norvegicus
[20] = target: Neuropeptides B/W receptor type 1 (Homo sapiens, UniProt P48145); assay: human NPBW1 receptor blockade, IC50 – cell-based, fluorescence, dose response, set 5, late-stage follow-up (AID 588566); format: functional
Chain of Neuropeptides B/W receptor type 1 (P48145 whole entry): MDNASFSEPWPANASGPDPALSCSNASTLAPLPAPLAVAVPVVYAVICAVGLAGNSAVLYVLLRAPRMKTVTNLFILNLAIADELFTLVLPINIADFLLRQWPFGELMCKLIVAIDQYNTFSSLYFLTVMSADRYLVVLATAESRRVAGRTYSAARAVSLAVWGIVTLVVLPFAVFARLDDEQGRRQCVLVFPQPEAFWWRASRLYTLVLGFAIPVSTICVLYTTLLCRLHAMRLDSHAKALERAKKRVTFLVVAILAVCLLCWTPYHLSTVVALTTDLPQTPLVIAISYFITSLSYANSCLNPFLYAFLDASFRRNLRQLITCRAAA

[21] = target: Melanin-concentrating hormone receptor 1 (Homo sapiens, UniProt Q99705); assay: Late-stage fluorescence-based counterscreen for antagonists of the G-protein coupled receptor 7 (GPR7): cell-based dose response assay to identify antagonists of the melanin-concentrating hormone receptor 1 (MCHR1) Set 5.; format: functional
Chain of Melanin-concentrating hormone receptor 1 (Q99705 whole entry): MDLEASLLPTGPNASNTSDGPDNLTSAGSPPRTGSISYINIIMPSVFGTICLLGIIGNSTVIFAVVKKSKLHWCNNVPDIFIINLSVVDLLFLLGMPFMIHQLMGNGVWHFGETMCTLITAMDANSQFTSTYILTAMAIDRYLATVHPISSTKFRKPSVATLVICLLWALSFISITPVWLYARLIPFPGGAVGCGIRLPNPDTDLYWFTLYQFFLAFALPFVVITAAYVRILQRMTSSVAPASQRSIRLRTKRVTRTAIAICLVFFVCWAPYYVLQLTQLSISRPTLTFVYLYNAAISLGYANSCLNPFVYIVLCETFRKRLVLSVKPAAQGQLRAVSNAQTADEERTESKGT

[22] = target: Glycogen synthase kinase-3 alpha (Homo sapiens, UniProt P49840); assay: GSK3A enzyme blockers, homolog specificity check – biochemical, microfluidics, dry powder samples, set 2, selectivity assay for GSK3beta inhibitor project, dose response (AID 623978); format: functional
[23] = target: T5, Glycogen synthase kinase-3 beta (Homo sapiens, UniProt P49841); assay: inhibition of human GSK3B activity – biochemical, microfluidics, dry powder samples, set 2, dose response (AID 623989); format: functional
T5 sequence (P49841 whole entry): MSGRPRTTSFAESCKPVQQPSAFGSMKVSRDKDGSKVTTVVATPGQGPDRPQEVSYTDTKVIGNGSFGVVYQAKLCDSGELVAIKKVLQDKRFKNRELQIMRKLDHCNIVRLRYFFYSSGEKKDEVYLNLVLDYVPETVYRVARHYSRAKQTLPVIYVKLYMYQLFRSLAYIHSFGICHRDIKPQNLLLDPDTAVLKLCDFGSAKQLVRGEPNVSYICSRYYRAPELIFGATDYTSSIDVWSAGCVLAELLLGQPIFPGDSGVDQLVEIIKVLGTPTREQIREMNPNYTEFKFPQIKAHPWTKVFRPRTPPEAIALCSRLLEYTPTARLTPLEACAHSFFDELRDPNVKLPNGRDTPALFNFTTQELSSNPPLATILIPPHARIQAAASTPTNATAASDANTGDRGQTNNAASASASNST

[24] = target: Dual specificity protein kinase CLK4 (Homo sapiens, UniProt Q9HAZ1); format: functional
Chain of Dual specificity protein kinase CLK4 (Q9HAZ1 whole entry): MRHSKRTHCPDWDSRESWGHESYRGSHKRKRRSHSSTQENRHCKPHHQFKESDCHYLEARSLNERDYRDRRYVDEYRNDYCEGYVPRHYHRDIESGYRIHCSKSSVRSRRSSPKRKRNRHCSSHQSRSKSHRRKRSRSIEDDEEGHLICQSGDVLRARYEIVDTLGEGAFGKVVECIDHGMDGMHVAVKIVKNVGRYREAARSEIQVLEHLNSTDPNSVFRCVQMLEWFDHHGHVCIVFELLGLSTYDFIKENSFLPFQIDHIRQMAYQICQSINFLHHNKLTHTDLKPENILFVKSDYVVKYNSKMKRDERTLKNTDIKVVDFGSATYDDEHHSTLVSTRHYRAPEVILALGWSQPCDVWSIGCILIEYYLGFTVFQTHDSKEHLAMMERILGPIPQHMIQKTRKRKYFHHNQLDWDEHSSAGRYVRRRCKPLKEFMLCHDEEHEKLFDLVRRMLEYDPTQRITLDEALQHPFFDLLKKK

[25] = target: Cyclin-dependent kinase 8 (Homo sapiens, UniProt P49336); assay: Navigating the Kinome. Panel member name: CDK8; format: functional
Chain of Cyclin-dependent kinase 8 (P49336 whole entry): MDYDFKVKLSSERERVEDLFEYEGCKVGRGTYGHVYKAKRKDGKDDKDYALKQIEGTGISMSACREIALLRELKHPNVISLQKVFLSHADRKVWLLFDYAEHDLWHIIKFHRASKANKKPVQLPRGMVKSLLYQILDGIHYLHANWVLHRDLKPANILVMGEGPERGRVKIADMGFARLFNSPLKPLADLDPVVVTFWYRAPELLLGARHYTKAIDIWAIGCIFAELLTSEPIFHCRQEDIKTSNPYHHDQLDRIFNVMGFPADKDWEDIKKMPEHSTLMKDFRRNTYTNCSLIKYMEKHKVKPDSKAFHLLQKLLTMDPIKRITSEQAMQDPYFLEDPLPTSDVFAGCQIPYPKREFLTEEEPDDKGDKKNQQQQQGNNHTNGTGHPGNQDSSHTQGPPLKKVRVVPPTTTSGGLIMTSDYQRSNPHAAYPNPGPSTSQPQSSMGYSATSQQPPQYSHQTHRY

[26] = target: Cyclin-dependent kinase 9 (Homo sapiens, UniProt P50750); format: functional;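 further: value from the CDK9 entry of a kinome-spanning kinase panel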
[27] = target: Rho-associated protein kinase 1 (Homo sapiens, UniProt Q13464); format: functional;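 further: measured within a broad kinome-wide panel profiling many kinases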
[28] = target: Serine/threonine-protein kinase pim-1 (Homo sapiens, UniProt P11309); format: functional
Chain of Serine/threonine-protein kinase pim-1 (P11309 whole entry): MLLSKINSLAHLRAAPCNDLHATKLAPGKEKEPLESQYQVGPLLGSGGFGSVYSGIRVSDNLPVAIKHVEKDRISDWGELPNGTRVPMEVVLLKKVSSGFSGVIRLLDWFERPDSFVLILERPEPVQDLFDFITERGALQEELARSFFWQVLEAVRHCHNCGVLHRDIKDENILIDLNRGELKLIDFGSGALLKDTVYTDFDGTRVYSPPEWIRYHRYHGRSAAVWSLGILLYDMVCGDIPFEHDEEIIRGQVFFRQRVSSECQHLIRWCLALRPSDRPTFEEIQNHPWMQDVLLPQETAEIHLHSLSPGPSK

[29] = target: T5, Glycogen synthase kinase-3 beta; format: functional
[30] = target: Serine/threonine-protein kinase Chk1 (Homo sapiens, UniProt O14757); format: functional;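 further: measured as one member of a kinome-wide kinase profiling panel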
Chain of Serine/threonine-protein kinase Chk1 (O14757 whole entry): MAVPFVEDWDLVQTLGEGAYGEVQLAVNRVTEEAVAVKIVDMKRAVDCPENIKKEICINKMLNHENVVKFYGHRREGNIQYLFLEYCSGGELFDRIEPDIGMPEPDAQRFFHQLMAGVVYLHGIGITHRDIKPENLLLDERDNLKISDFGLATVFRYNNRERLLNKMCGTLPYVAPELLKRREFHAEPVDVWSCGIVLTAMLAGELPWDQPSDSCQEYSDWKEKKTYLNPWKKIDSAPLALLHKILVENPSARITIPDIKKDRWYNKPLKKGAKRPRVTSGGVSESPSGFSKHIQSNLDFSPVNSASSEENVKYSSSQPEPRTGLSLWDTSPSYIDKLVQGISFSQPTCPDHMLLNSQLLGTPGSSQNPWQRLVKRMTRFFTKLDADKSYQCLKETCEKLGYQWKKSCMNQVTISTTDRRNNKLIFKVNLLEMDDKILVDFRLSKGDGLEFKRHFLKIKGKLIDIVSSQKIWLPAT

[31] = target: Cyclin-dependent kinase 7 (Homo sapiens, UniProt P50613); format: functional;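 further: value comes from a kinome-wide kinase profiling panel in which CDK7 is one member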
Chain of Cyclin-dependent kinase 7 (P50613 whole entry, the tested form may be a part): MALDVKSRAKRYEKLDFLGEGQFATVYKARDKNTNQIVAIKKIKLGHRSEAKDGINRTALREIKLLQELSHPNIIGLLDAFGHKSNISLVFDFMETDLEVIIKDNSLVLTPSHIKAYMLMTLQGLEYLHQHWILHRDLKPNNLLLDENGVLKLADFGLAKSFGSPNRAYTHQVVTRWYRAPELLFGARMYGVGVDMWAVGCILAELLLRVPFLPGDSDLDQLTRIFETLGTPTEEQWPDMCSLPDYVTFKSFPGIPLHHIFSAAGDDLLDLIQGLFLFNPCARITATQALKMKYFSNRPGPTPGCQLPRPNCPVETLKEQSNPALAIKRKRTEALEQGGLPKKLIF

LIM domain kinase 1 = LIM domain kinase 1 (Homo sapiens, UniProt P53667); assay: Navigating the Kinome. Panel member name: LIMK1; format: functional
[32] = Vero cell cytotoxicity, dose response, cytotoxicity control for M. tuberculosis growth inhibitor project, Vero cells, purified and synthesized compounds, set 4 (AID 504854); format: functional; details: Mycobacterium tuberculosis
[33] = THP-1 cell cytotoxicity, cytotoxicity control, set 4 (AID 504911); format: functional; details: Mycobacterium tuberculosis
[34] = THP-1 cell cytotoxicity, dose response, cytotoxicity control, set 3 (AID 504852); format: functional; details: Mycobacterium tuberculosis
[35] = target: T6, High affinity choline transporter 1 (Homo sapiens, UniProt Q9GZV3); assay: human choline transporter potentiators, potency – cell-based, 10-point CRC, membrane potential dye, dose response (AID 602376); format: functional
T6 sequence (Q9GZV3 whole entry): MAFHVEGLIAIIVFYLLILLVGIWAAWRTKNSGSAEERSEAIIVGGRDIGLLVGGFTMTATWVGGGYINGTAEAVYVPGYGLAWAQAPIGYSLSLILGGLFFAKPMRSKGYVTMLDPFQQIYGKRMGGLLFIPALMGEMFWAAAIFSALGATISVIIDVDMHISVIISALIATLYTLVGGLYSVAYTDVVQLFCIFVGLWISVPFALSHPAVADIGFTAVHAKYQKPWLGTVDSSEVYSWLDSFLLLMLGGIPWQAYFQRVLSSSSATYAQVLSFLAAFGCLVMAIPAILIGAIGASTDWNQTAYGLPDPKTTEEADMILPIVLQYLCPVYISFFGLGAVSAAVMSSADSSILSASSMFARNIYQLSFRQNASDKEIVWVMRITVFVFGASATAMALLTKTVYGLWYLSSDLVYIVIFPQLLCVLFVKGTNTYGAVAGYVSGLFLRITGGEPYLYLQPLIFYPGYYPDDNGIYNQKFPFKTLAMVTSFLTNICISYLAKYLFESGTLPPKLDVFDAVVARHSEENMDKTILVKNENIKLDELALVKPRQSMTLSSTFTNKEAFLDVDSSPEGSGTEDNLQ

**Q.** With `CNC(=O)c1ccccc1Sc1ccc2c(C=Cc3ccccn3)n[nH]c2c1` as the molecule, how does the Ki [1] read?
**A.** > 7.94 µM (inactive)

**Q.** And the Ki [2]?
**A.** > 7.94 µM (inactive)

**Q.** What about the Ki [3] of the same molecule?
**A.** > 1.58 µM (inactive)

**Q.** What about the Ki [4] of the same molecule?
**A.** > 10 µM (inactive)

**Q.** What about the Ki [5] of the same molecule?
**A.** > 3.98 µM (inactive)

**Q.** What about the Ki [6] of the same molecule?
**A.** > 6.31 µM (inactive)

**Q.** What about the Ki [7] of the same molecule?
**A.** > 1.58 µM (inactive)

**Q.** What about the Ki [8] of the same molecule?
**A.** > 3.98 µM (inactive)

**Q.** And the Ki [9]?
**A.** > 10 µM (inactive)

**Q.** What about the Ki [10] of the same molecule?
**A.** > 7.94 µM (inactive)

**Q.** What about the Ki [11] of the same molecule?
**A.** > 1.26 µM (inactive)

**Q.** Which Ki [12] does the source give for `CCCn1c(=O)c2[nH]c(-c3cnn(Cc4cccc(C(F)(F)F)c4)c3)nc2n(CC)c1=O` [GS 6201] here?
**A.** 7.94 µM (active)

**Q.** What about the Ki [13] of the same molecule?
**A.** 3.98 µM (active)

**Q.** What about the Ki [14] of the same molecule?
**A.** 7.94 µM (active)

**Q.** What does the source list for `COc1ccc(S(=O)(=O)N(C)C[C@@H]2Oc3c(NC(=O)Nc4cccc5ccccc45)cccc3C(=O)N([C@@H](C)CO)C[C@H]2C)cc1Cl`?
**A.** AC50 (INS1 [15]): 27.3 µM (active); AC50 [16]: 52.8 µM (active); AC50 (INS1 [17]): 39.5 µM (active); AC50 (INS1 [18]): 147 µM (active); AC50 (INS1 [19]): 46.3 µM (active)

**Q.** For `COc1ccc(Oc2c(F)cnn(Cc3cccc4ccccc34)c2=O)cc1`, which IC50 [20] is on record?
**A.** 2.07 µM (active)

**Q.** What about the IC50 [21] of the same molecule?
**A.** 8.86 µM (active)

**Q.** What does the source list for `Nc1nc(NCC2CCCO2)nc(Nc2ccc(Cl)cc2)c1[N+](=O)[O-]` (stereo unspecified)?
**A.** AC50 [22]: 1.56 µM (active); AC50 [23]: 0.429 µM (active)

**Q.** With `O=C(C=Cc1ccc(Br)cc1)Nc1cccc2cnccc12` as the molecule, how does the Ki [24] read?
**A.** 1.58 µM (active)

**Q.** What about the Ki [25] of the same molecule?
**A.** 2 µM (active)

**Q.** What about the Ki [26] of the same molecule?
**A.** 1.58 µM (active)

**Q.** And the Ki [27]?
**A.** 3.16 µM (active)

**Q.** What about the Ki [28] of the same molecule?
**A.** 2.51 µM (active)

**Q.** What about the Ki [29] of the same molecule?
**A.** 2 µM (active)

**Q.** What about the Ki [30] of the same molecule?
**A.** 2 µM (active)

**Q.** And the Ki [31]?
**A.** 1.58 µM (active)

**Q.** What about the Ki (LIM domain kinase 1) of the same molecule?
**A.** 3.16 µM (active)

**Q.** For `COC(=O)C(C)Oc1ccc(Cc2ncc(C(F)(F)F)cc2Cl)cc1` (stereo unspecified), which CC50 [32] is on record?
**A.** > 100 µM (active)

**Q.** And the CC50 [33]?
**A.** > 100 µM (active)

**Q.** And the CC50 [34]?
**A.** > 100 µM (active)

**Q.** With `CN(Cc1cccc(F)c1)C(=O)c1ccccc1Sc1ccccc1C#N` as the molecule, how does the EC50 [35] read?
**A.** 15 µM (active)

Reference: ChEMBL document CHEMBL1201862, “PubChem BioAssay data set” (2004)
